In patent US5049559A, “Thieno-triazolo-diazepine derivatives useful as anti-ischemic agents” (priority 1989, dated 1991):

Legend:
[1] = tested on: platelet aggregation induced by PAF; experiment: Inhibition of platelet aggregation induced by PAF; assay type: cell-based; settings: Oryctolagus cuniculus, male New Zealand rabbits, Table I
Method: 1) Inhibition of platelet aggregation induced by PAF
This experimentation was conducted according to the method of R. KINLOUGH. RATHBONE, J. P. CAZENAVE, M. PACKHAM and F. MUSTARD, Lab. Invest. 48, 98, 1980. In this test, New Zealand rabbits were used (male New Zealand rabbits of an average weight of 5 kg).
The determinations are made on a chrono-log Coultronics aggregometer, at […] coupled with a graphic recorder; the results of these determinations (in molecular concentration) are reported on the table I on the central column.

[2] = Global ischemia on gerbils; assay type: in vivo; settings: Meriones unguiculatus, 168 h, carotides clamped 10 minutes, hippocampes one week later, 3H-PK 11195, percentage of protection compared to control
Method: 3) Global ischemia on gerbils For this test, males gerbils were anaesthetized with brietal at the doses of 35 mg/kg IP; thereafter, both carotides were clamped for 10 minutes, then the clamping was released. Treated animals received each 10 mg/kg of the compounds of one of the examples. One week later, the animals were killed and both hippocampes were taken, weighed and frozen at -80° C. After crushing with 1 ml of TRIS-HCl pH 7.4 for 30 seconds, aliquots of each 50 μl of this preparation were incubed in each 1 ml of TRIS-HCl buffer containing ^3 H-PK 11195 at 2 nM (90 Ci/mmole, NENE, Germany) for 1 hour at 25° C. For each preparation, 3 determinations were made. The density of omega 3 sites (marked by the specific ^3 H-PK 11195 marker) are expressed in f-moles of PK 11195/mg of fresh tissues and converted in percentage of protection compared to control.

benzodiazepine receptors = experiment: Inhibition of the binding to benzodiazepine receptors; settings: rat brains, 1 hour 30 minutes at 4° C., tracers 3H-RO-15-1788 and 3H-RO-5-4864, Table I, read-out: BDZ receptors
Excerpt: 2) Inhibition of the binding to benzodiazepine receptors
The interest of the previous experimentation depends on the results obtained in this experimentation: as a compound of the invention has a benzodiazepine like structure, it is important to check whether the specific benzodiazepine activity would not appear at the dose where platelet aggregation was inhibited.
Therefore, this experimentation has been conducted according to the method of MOHLER H. and RICHARD J. G. Agonist and antagonist benzodiazepine receptor interaction in vitro, Nature, vol. 294, 763-765, 1981.
This experimentation was conducted on rat brains incubated 1 hour 30 minutes at 4° C. using ^3 H-RO-15-1788 and ^3 H-RO-5-4864 (NEN) as tracers and […] and RO-5-4864 as reference antagonists.
The results in molecular concentration are reported in the table I, on the right hand column.

SMILES	IC50 [1] [nM]	inhibition in vivo at 10 mg/kg [2] [%]	IC50 (benzodiazepine receptors) [nM]
Cc1nnc2n1-c1sc3c(c1C(c1ccccc1Cl)=NC2)CCN(C(=O)CSc1ccc(C(F)(F)F)cc1)C3 [Example 23, 6-(2-chlorophenyl)-9-(4-trifluoromethylphenylthiomethylcarbonyl)-7,8,9, 10-tetrahydro-1-methyl-4H-pyrido [4',3':4,5] thieno [3,2-f] 1,2,4-triazolo[4,3-a] 1,4-diazepine]	12.4	37.5	1200
COc1ccc(SCC(=S)N2CCc3c(sc4c3C(c3ccccc3Cl)=NCc3nnc(C)n3-4)C2)cc1OC [Example 12, 6-(2-chlorophenyl)-9-(3,4-dimethoxyphenylthiomethyl-thiocarbonyl)-7,8,9, 10-tetrahydro-1-methyl-4H-pyrido [4',3':4,5] thieno [3,2-f] 1,2,4-triazolo [4,3-a] 1,4-diazepine]	31.4	34.1	870
Cc1nnc2n1-c1sc3c(c1C(c1ccccc1Cl)=NC2)CCN(C(=O)CSC(C)C)C3 [Example 1, 6-(2-chlorophenyl)-9-(isopropylthiomethylcarbonyl)-7,8,9,10-tetrahydro-1-methyl-4H-pyrido [4',3':4,5] thieno [3,2-f] 1,2,4-triazolo [4,3-a] 1,4-diazepine]	25.3	54.2	6700
Cc1nnc2n1-c1sc3c(c1C(c1ccccc1Cl)=NC2)CCN(C(=O)CSc1cccs1)C3 [Example 33, 6-(2-chlorophenyl)-9-(2-thienyl-thiomethyl-carbonyl)-7,8,9, 10-tetrahydro-1-methyl-4H-pyrido [4',3':4,5] thieno [3,2-f] 1,2,4-triazolo[4,3-a] 1,4-diazepine]	41.2	24.8	5700
Cc1nnc2n1-c1sc3c(c1C(c1ccccc1Cl)=NC2)CCN(C(=O)CSc1ccc(C(C)(C)C)cc1)C3 [Example 17, 6-(2-chlorophenyl)-9-(4-t.butylphenylthiomethyl-carbonyl)-7,8,9, 10-tetrahydro-1-methyl-4H-pyrido [4',3':4,5] thieno [3,2-f] 1,2,4-triazolo[4,3-a] 1,4-diazepine]	8.75	11.1	4700
Cc1nnc2n1-c1sc3c(c1C(c1ccccc1Cl)=NC2)CCN(C(=O)CSc1cccc(C(F)(F)F)c1)C3 [Example 21, 6-(2-chlorophenyl)-9-(3-trifluoromethylphenylthiomethylcarbonyl)-7,8,9, 10-tetrahydro-1-methyl-4H-pyrido [4',3':4,5] thieno [3,2-f] 1,2,4-triazolo[4,3-a] 1,4-diazepine]	8.66	34.1	810
COc1ccc(SCC(=O)N2CCc3c(sc4c3C(c3ccccc3Cl)=NCc3nnc(C)n3-4)C2)c(OC)c1OC [Example 15, 6-(2-chlorophenyl)-9-(2,3,4-trimethoxyphenylthiomethyl-carbonyl)-7,8,9, 10-tetrahydro-1-methyl-4H-pyrido [4',3':4,5] thieno [3,2-f] 1,2,4-triazolo[4,3-a] 1,4-diazepine]	120	35.8	3600
Cc1nnc2n1-c1sc3c(c1C(c1ccccc1Cl)=NC2)CCN(C(=S)CSc1cccc(C(F)(F)F)c1)C3 [Example 22, 6-(2-chlorophenyl)-9-(3-trifluoromethylphenylthiomethylthiocarbonyl)-7,8,9, 10-tetrahydro-1-methyl-4H-pyrido [4',3':4,5] thieno [3,2-f] 1,2,4-triazolo [4,3-a] 1,4-diazepine]	8.18	48.1	610
Cc1nnc2n1-c1sc3c(c1C(c1ccccc1Cl)=NC2)CCN(C(=O)CSC(C)(C)C)C3 [Example 3, 6-(2-chlorophenyl)-9-(t.butylthiomethyl-carbonyl)-7,8,9, 10-tetrahydro-1-methyl-4H-pyrido [4',3':4,5] thieno [3,2-f] 1,2,4-triazolo[4,3-a] 1,4-diazepine]	16.8	34.3	2300
Cc1nnc2n1-c1sc3c(c1C(c1ccccc1Cl)=NC2)CCN(C(=S)CSc1ccc(F)cc1)C3 [Example 26, 6-(2-chlorophenyl)-9-(4-fluorophenylthiomethyl-thiocarbonyl)-7,8,9, 10-tetrahydro-1-methyl-4H-pyrido [4',3':4,5] thieno [3,2-f] 1,2,4-triazolo[4,3-a] 1,4-diazepine]	6.56	26.5	610
Cc1nnc2n1-c1sc3c(c1C(c1ccccc1Cl)=NC2)CCN(C(=S)CSc1ccccc1)C3 [Example 8, 6-(2-chorophenyl)-9-(phenyl-thiomethyl-thiocarbonyl)-7,8,9, 10-tetrahydro-1-methyl-4H-pyrido [4',3':4,5] thieno [3,2-f] 1,2,4-triazolo[4,3-a] 1,4-diazepine]	10.5	26.2	7330
Cc1nnc2n1-c1sc3c(c1C(c1ccccc1Cl)=NC2)CCN(C(=O)CSc1cccc(Cl)c1Cl)C3 [Example 27, 6-(2-chlorophenyl)-9-(2,3-dichlorophenylthiomethyl-carbonyl)-7,8,9, 10-tetrahydro-1-methyl-4H-pyrido [4',3':4,5] thieno [3,2-f] 1,2,4-triazolo[4,3-a] 1,4-diazepine]	8.45	33.3	48000
CCCCCCCCCCCCCCCCSCC(=O)N1CCc2c(sc3c2C(c2ccccc2Cl)=NCc2nnc(C)n2-3)C1 [Example 5, 6-(2-chlorophenyl)-9-(hexadecylthiomethyl-carbonyl)-7,8,9, 10-tetrahydro-1-methyl-4H-pyrido [4',3':4,5] thieno [3,2-f] 1,2,4-triazolo[4,3-a] 1,4-diazepine]	7.43	29.4	121
Cc1nnc2n1-c1sc3c(c1C(c1ccccc1Cl)=NC2)CCN(C(=O)CSc1ccco1)C3 [Example 31, 6-(2-chlorophenyl)-9-(2-furyl-thiomethyl-carbonyl)-7,8,9, 10-tetrahydro-1-methyl-4H-pyrido [4',3':4,5] thieno [3,2-f] 1,2,4-triazolo[4,3-a] 1,4-diazepine]	7.1	36.2	230
Cc1nnc2n1-c1sc3c(c1C(c1ccccc1Cl)=NC2)CCN(C(=O)CSc1ccc(Oc2ccccc2)cc1)C3 [Example 29, 6-(2-chlorophenyl)-9-(4-phenoxyphenylthiomethyl-carbonyl) 7,8,9, 10-tetrahydro-1-methyl-4H-pyrido [4',3':4,5] thieno [3,2-f] 1,2,4-triazolo[4,3-a] 1,4-diazepine]	9.05	51.6	1230
COc1ccc(SCC(=O)N2CCc3c(sc4c3C(c3ccccc3Cl)=NCc3nnc(C)n3-4)C2)cc1 [Example 9, 6-(2-chlorophenyl)-9-(4-methoxyphenylthiomethyl-carbonyl)-7,8,9, 10-tetrahydro-1-methyl-4H-pyrido [4',3':4,5] thieno [3,2-f] 1,2,4-triazolo[4,3-a] 1,4-diazepine]	33.7	31.2	2700
Cc1nnc2n1-c1sc3c(c1C(c1ccccc1Cl)=NC2)CCN(C(=S)CSc1cccc(Cl)c1Cl)C3 [Example 28, 6-(2-chlorophenyl)-9-(2,3-dichlorophenylthiomethyl-thiocarbonyl)-7,8,9, 10-tetrahydro-1-methyl-4H-pyrido [4',3':4,5] thieno [3,2-f] 1,2,4-triazolo[4,3-a] 1,4-diazepine]	9.06	35.3	4300
Cc1nnc2n1-c1sc3c(c1C(c1ccccc1Cl)=NC2)CCN(C(=S)CSc1ccccc1C(F)(F)F)C3 [Example 20, 6-(2-chlorophenyl)-9-(2-trifluoromethylphenylthiomethylthiocarbonyl)-7,8,9, 10-tetrahydro-1-methyl-4H-pyrido [4',3':4,5] thieno [3,2-f] 1,2,4-triazolo [4,3-a] 1,4-diazepine]	146	32.7	1600
